Patent publication US7691594B2, “Anticancer agent” (Fujifilm Corporation, priority 2006, dated 2010)

What was measured:
[1] = system: messenger RNA of PCDH20 gene in ABC-1 cells; assay: RT-PCR of PCDH20 gene messenger RNA expression after inhibitor treatment, ABC-1 cells; assay type: cell-based, human
Procedure: (§1) Specifically, the results were obtained by adding either 5-aza-deoxycytidine (5-aza-dCyd) serving as a DNA methyltransferase inhibitor to each cell type at concentrations of 5 or 10 μM for 5 days and/or trichostatin A (TSA) serving as a non-specific inhibitory substance for histone deacetylase to each cell type at concentrations of […] or […] for 12 hours before cell harvest during culture, and then carrying out RT-PCR, followed by comparison of the expression levels of PCDH20 gene messenger RNA via electrophoresis. The expression level of GAPDH was used as a control in RT-PCR.
(§2) Cell lines used herein were squamous cell lines EBC-1, LK-2, PC10, VMRC-LCP, LC-1sq, and ACC-LC-73; adenocarcinoma cell lines 11-18, A549, ABC-1, RERF-LC-OK, VMRC-LCD, SK-LC-3, and RERF-LC-KJ; and large cell carcinoma cell lines KNS-62, 86-2, LU65, PC-13, ACC-LC-33, NCI-H460, and LU99A. As lung cancer samples derived from clinical specimens, paraffin-embedded samples derived from 53 types of adenocarcinoma and rapidly-frozen samples derived from 59 types of adjacent normal site were used. Cancer samples derived from clinical specimens were obtained from the National Cancer Center, Hokushin General Hospital of Nagano Prefectural Welfare Federation and used under agreement with each patient and approval of the ethical committee of each organization. […]

[2] = system: messenger RNA of PCDH20 gene in LU65 cells; assay: RT-PCR of PCDH20 gene messenger RNA expression after inhibitor treatment, LU65 cells; assay type: cell-based, human
Procedure: as §1, §2

[3] = TSA 100 ng/ml for 12 hours before harvest together with 5-aza-dCyd
[4] = 5-aza-dCyd 5 μM and 10 μM for 5 days, GAPDH control

Row | Structure (SMILES) | expression level of messenger RNA of PCDH20 gene (RT-PCR), combination [1, 3] | expression level of messenger RNA of PCDH20 gene (RT-PCR), combination [2, 3] | expression level of messenger RNA of PCDH20 gene (RT-PCR) [1, 4] | expression level of messenger RNA of PCDH20 gene (RT-PCR) [2, 4]
1 | CC(/C=C/C(=O)NO)=C\[C@@H](C)C(=O)c1ccc(N(C)C)cc1 [trichostatin A] | elevated synergistically | elevated synergistically | – | –
2 | Nc1ncn([C@H]2C[C@H](O)[C@@H](CO)O2)c(=O)n1 [5-aza-deoxycytidine] | – | – | transcription suppression was canceled | transcription suppression was canceled
